Test results taken from article PMC13095408, “DBeQ derivative targets vacuolar protein sorting 4 functions in cancer cells and suppresses tumor growth in mice” (The Journal of Pharmacology and Experimental Therapeutics, 2025).

How the values were obtained:
U2OS cells = assay: Immunoblot analysis of VPS4- and VCP-mediated pathways (autophagy, ER stress, ERAD); format: cell-based; conditions: 0.6 μM CB-5083, 1 μM 4-107, complete media
Experimental: Whole-cell lysates were prepared in radio-immunoprecipitation buffer (25 mM Tris-HCl, pH 8.0, 150 mM NaCl, 1 mM EDTA, 1% v/v IGEPAL CA-630, 0.5% w/v sodium deoxycholate, and 1% v/v SDS) containing protease (1:250) and phosphatase inhibitor cocktails (1:100) then resolved via SDS-PAGE and probed with the indicated antibodies. Signals were acquired with the Odyssey CLx (LI-COR) for fluorescence or Odyssey XF (LI-COR) for chemiluminescence detection and visualized in Image Studio version 6 (LI-COR).
VPS4 is essential for autophagy and loss of VPS4 function inhibits autophagic flux ([Takahashi et al, 2018]; [Zhen et al, 2019]). Meanwhile, VCP is required for endoplasmic reticulum-associated degradation (ERAD; [Rabinovich et al, 2002]) where VCP inhibition results in the accumulation of ubiquitinated proteins and induction of ER stress ([Weihl et al, 2006]; [Bastola et al, 2016]).

recombinant human VCP = biological target: T1, recombinant human VCP (Rattus norvegicus, UniProt P46462); assay: VCP ATPase activity, EnzChek Phosphate assay; format: biochemical
T1 construct: His (N); host or cells: Escherichia coli BL21(DE3)
T1 sequence (P46462 2-806 limits assumed): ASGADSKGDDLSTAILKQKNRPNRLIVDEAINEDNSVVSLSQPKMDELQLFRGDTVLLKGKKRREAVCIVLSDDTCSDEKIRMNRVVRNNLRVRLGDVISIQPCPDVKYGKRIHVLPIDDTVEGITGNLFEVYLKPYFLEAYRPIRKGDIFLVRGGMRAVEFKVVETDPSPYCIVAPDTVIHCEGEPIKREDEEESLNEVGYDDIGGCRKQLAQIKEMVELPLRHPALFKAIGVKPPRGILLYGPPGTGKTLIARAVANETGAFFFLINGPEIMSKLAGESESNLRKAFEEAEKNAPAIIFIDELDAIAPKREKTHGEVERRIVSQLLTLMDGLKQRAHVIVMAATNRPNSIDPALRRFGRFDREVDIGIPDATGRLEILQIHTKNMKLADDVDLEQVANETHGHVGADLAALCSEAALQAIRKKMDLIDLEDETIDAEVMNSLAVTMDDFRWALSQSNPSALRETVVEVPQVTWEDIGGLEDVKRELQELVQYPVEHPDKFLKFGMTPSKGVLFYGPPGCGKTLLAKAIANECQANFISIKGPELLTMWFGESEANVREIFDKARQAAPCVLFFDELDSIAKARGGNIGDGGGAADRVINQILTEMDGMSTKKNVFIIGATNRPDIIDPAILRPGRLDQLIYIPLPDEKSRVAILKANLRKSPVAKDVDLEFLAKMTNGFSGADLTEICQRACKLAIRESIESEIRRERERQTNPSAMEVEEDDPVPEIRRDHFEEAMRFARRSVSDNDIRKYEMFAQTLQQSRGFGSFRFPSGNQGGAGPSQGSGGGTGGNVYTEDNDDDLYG
Experimental: (§1) VPS4B and VCP ATPase activities were measured using the EnzChek Phosphate assay for the quantification of released phosphate. Assay buffers were based on literature precedents ([Cupido et al, 2019], [2021]) as follows: VPS4B buffer (20 mM HEPES-KOH, pH 7.4, 25 mM KOAc, 2 mM MgCl2, 5 mM (NH4)2SO4, 0.5 mM CaCl2, 2.5 mM DTT, 0.1 mg/mL BSA, 0.005% v/v Triton X-100), VCP buffer (20 mM HEPES-NaOH, pH 7.4, 20 mM NaCl, 10 mM MgCl2, 5 mM (NH4)2SO4, 0.5 mM CaCl2, 2.5 mM DTT, 0.1 mg/mL BSA, 0.005% v/v Triton X-100). In black clear-bottom 384-well plates, 22.5 μL of 5% DMSO or 40× test compounds diluted in the respective assay buffer was added to each well. ATPases were diluted to 1 μM in the respective buffers containing 2× EnzChek Phosphate assay coupling reagents of 400 μM MESG and 2 U of PNP, then 25 μL was added to each well. Plates were mixed at 1000 rpm for 30 minutes at RT while being protected from light. The reaction was initiated by adding 2.5 μL of 20 mM MgATP or water followed by mixing at 1200 rpm for 30 seconds at RT. Plates were measured at 360 nm using a CLARIOstar plate reader (BMG LABTECH) for 20 minutes at 37 °C. ATPase activity was calculated as the amount of phosphate released over a 5-minute interval under linear initial velocity conditions. The remaining ATPase activity was calculated by normalizing compound-treated activity values to the DMSO control. IC50 was calculated by fitting normalized values to a sigmoidal dose-response curve with Hill slope = −1 using Graph Pad Prism 10.0.
(§2) To identify VPS4i, we developed enzyme- and cell-based VPS4 functional assays to serve as VPS4i-screening platforms. For the enzyme-based assay, we used the colorimetric EnzChek Phosphate assay that detects free phosphate with the advantage of continuous measurement of ATP hydrolysis over time. […] Due to the high sequence and structural similarity of AAA-ATPases, we also established a VCP ATPase assay to evaluate hit selectivity. […] For the cell-based assay, our approach was based on how VPS4 inhibition causes the accumulation of ESCRT-III ([Babst et al, 1998]; [Katoh et al, 2003]). We used an N-terminal GFP-tagged CHMP4B reporter system because it is the most abundant ESCRT-III subunit ([Katoh et al, 2004]; [Teis et al, 2008]). Our aim was to test compounds under short-term serum and amino acid starvation to stimulate ESCRT activity for easier detection of inhibitors ([Takahashi et al, 2018], [2019]). […] Overall, we established 2 systems for VPS4i screening, a VPS4B ATPase activity assay and a GFP-CHMP4B accumulation cell-based assay.

[1] = tested on: GFP-CHMP4B-expressing U2OS cells; assay: GFP-CHMP4B accumulation cell-based assay (high-content microscopy)
Experimental: Plates were then scanned using the 20× objective for 1 hour with ≥100 cells/well across 6 fields/well. […] For all other assays, the cells were cultured overnight in black glass-bottom 96-well plates (Cellvis; P96-1.5H-N) then stained, rinsed, and treated with SM containing the indicated compounds (0.1% DMSO or 0.1% DMSO/0.1% ethanol [vehicle] final). Plates were scanned using the 20× NA .70 objective at the indicated intervals with ≥ 300 cells/well across 3 fields/well. […]

VPS4B = biological target: T2, VPS4B (Homo sapiens, UniProt O75351); assay: VPS4B ATPase activity, EnzChek Phosphate assay; format: biochemical; parameters: His tag (pET28a vector-encoded) (N); made in house; host or cells: Escherichia coli BL21(DE3)
T2 sequence (O75351 1-444): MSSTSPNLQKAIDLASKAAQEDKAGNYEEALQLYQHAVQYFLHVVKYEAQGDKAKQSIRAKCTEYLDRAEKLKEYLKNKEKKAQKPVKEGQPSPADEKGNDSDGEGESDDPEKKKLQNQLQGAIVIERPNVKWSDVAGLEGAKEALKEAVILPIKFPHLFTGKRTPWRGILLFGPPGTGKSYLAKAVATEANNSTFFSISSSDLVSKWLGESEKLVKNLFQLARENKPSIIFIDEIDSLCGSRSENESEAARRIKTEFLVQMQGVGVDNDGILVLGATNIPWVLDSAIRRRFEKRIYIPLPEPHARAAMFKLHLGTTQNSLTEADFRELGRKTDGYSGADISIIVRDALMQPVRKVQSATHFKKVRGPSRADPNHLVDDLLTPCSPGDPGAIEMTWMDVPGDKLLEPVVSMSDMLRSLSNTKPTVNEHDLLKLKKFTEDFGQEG
Experimental: as §1, §2

[2] = screened at 5 µM, mean ± S.D., Supplemental Table 2
[3] = screened at 1 µM, mean ± S.D., Supplemental Table 2
[4] = screened at 1 μM, starvation media, 1 hour, foci intensity per cell normalized to 4-107, mean ± SD, Table 1
[5] = remaining ATPase activity, screened at 5 μM, mean ± SD, Table 1
[6] = remaining ATPase activity, screened at 5 μM, mean ± SD, Table 2

Compound | accumulation of K48-linked polyubiquitinated proteins (U2OS cells) | ER stress (HSPA5, ATF4) (U2OS cells; 5 μM DBeQ) | autophagy (SQSTM1, LC3-II) (U2OS cells; 5 μM DBeQ) | VCP ATPase (% DMSO) (recombinant human VCP; [2]) | GFP-CHMP4B (% 4-107) [1, 3] | VPS4B ATPase (% DMSO) (VPS4B; [2]) | GFP-CHMP4B (% 4-107) [1, 4] | VPS4B ATPase (% DMSO) (VPS4B; [5]) | GFP-CHMP4B (% 4-107) ([1]; screened at 1 µM, mean ± S.D., Supplemental Table 2, listed as 7-07) | VPS4B ATPase (% DMSO) (VPS4B; screened at 5 µM, mean ± S.D., Supplemental Table 2, listed as 7-07) | VCP ATPase (% DMSO) (recombinant human VCP; [6])
Cc1cc2c(C(N)=O)cccc2n1-c1nc2c(c(NCc3ccccc3)n1)COCC2 [CB-5083] | accumulation of K48-linked polyubiquitinated proteins | strongly induced ER stress | reduction in SQSTM1, indicating the stimulation of autophagy |  |  |  |  |  |  |  | 
COc1cccc(CNc2nc(NCc3ccccc3)c3cccc(OC)c3n2)c1 [Compound 5-27-2] |  |  |  | 100.03 ± 0.81 % DMSO | 71.11 ± 0.37 % 4-107 | 51.50 ± 0.83 % DMSO |  |  |  |  | 
COc1cccc2c(NCc3ccccc3)nc(NCc3ccc(F)cc3)nc12 [Compound 5-151] |  |  |  | 93.82 ± 0.90 % DMSO | 73.02 ± 27.67 % 4-107 | 47.66 ± 0.34 % DMSO |  |  |  |  | 
COc1ccc2c(NCc3ccccc3)nc(NCc3ccccc3)nc2c1 [Compound 6] |  |  |  | 86.15 ± 0.65 % DMSO | 33.47 ± 15.62 % 4-107 | 35.59 ± 2.28 % DMSO | 33.47 ± 15.62 % 4-107 | 35.59 ± 2.28 % DMSO |  |  | 
COc1cccc2c(NCc3ccccc3)nc(NCc3ccc(C#N)cc3)nc12 [Compound 7-05] |  |  |  | 95.43 ± 0.86 % DMSO | 42.59 ± 0.15 % 4-107 | 54.50 ± 2.02 % DMSO |  |  |  |  | 
Nc1cccc2c(NCc3ccccc3)nc(NCc3ccccc3)nc12 [Compound 7-31] |  |  |  | 69.70 ± 8.05 % DMSO | 48.41 ± 2.74 % 4-107 |  |  |  |  |  | 
COc1cccc2c(NCc3ccccc3)nc(NCc3cccc4ccccc34)nc12 [Compound 13] |  |  |  | 98.67 ± 2.86 % DMSO | 36.79 ± 0.89 % 4-107 | 28.27 ± 0.04 % DMSO | 36.79 ± 0.89 % 4-107 | 28.27 ± 0.04 % DMSO |  |  | 
COc1cccc2c(NCc3ccccc3)nc(NCc3cccc(C(F)(F)F)c3)nc12 [Compound 15] |  |  |  |  | 25.61 ± 20.09 % 4-107 | 28.57 ± 1.13 % DMSO | 25.61 ± 20.09 % 4-107 | 28.57 ± 1.13 % DMSO |  |  | 
COc1cccc2c(NCc3ccccc3)nc(NCc3cccc(OC(F)(F)F)c3)nc12 [Compound 16] |  |  |  |  |  |  | 7.52 ± 1.95 % 4-107 | 41.50 ± 2.98 % DMSO | 7.52 ± 1.95 % 4-107 | 41.50 ± 2.98 % DMSO | 
COc1cccc2c(NCc3ccccc3)nc(NCc3cccc(C#N)c3)nc12 [Compound 17] |  |  |  | 91.83 ± 3.79 % DMSO | 82.61 ± 11.90 % 4-107 | 55.59 ± 2.13 % DMSO | 82.61 ± 11.90 % 4-107 | 55.59 ± 2.13 % DMSO |  |  | 91.83 ± 5.36 % DMSO
COc1cccc2c(NCc3ccccc3)nc(NCc3ccc(C)cc3)nc12 [Compound 18] |  |  |  | 83.40 ± 3.28 % DMSO | 48.09 ± 1.26 % 4-107 | 27.55 ± 0.01 % DMSO | 48.09 ± 1.26 % 4-107 | 27.55 ± 0.01 % DMSO |  |  | 83.40 ± 4.64 % DMSO
COc1ccc(CNc2nc(NCc3ccccc3)c3cccc(OC)c3n2)cc1 [Compound 19] |  |  |  | 107.28 ± 1.88 % DMSO | 86.61 ± 22.39 % 4-107 | 29.98 ± 0.49 % DMSO | 86.61 ± 22.39 % 4-107 | 29.98 ± 0.49 % DMSO |  |  | 107.28 ± 2.66 % DMSO
COc1cccc2c(NCc3ccccc3)nc(NCc3cccc(F)c3)nc12 [Compound 20] |  |  |  | 80.50 ± 0.40 % DMSO | 99.48 ± 22.3 % 4-107 | 35.22 ± 0.66 % DMSO | 99.48 ± 22.30 % 4-107 | 35.22 ± 0.66 % DMSO |  |  | 80.50 ± 0.57 % DMSO
COc1ccc(CNc2nc(NCc3ccc(OC)cc3)c3cccc(OC)c3n2)cc1 [Compound 21] |  |  |  | 100.96 ± 0.28 % DMSO | 37.69 ± 13.03 % 4-107 | 33.98 ± 3.50 % DMSO | 37.69 ± 13.03 % 4-107 | 33.98 ± 3.50 % DMSO |  |  | 
COc1cccc2c(NCc3ccc(F)cc3)nc(NCc3ccc(F)cc3)nc12 [Compound 22] |  |  |  | 99.33 ± 2.70 % DMSO | 51.23 ± 26.20 % 4-107 | 46.38 ± 2.33 % DMSO | 51.23 ± 26.20 % 4-107 | 46.38 ± 2.33 % DMSO |  |  | 
